Structures can show the parent of a compound that is named as a salt. Where two headings read alike, the source gives them in different places.
Legend:
[1] = Experimental: To generate a foam composition that is capable of maintaining the high solubility of naftifine HCl without needing to add in surfactants, the solubility of the API with various excipients was tested. Naftifine hydrochloride was combined with different solvents to identify which solvents are able to solubilize the API. The objective of this study was to determine which solvents can be useful in the development of formulations where the API is soluble. The objective of this study was not to determine the maximal solubility of the API in the tested solvents.
To prepare the mixtures, the API was added at a 1% w/w concentration to each solvent at room temperature under mixing. Solubility at room temperature was then assessed after 24 hours by determining the presence of API crystals using microscopic observation at ×200 magnification under polarized light. The mixture was then heated to about 80° C. for 10 minutes and mixed. Solubility at 80° C. was assessed by visual observation. The mixture was then cooled to room temperature and solubility was assessed after 24 hours by determining the presence of API crystals using microscopic evaluation at ×200 magnification under polarized light.
The first column in Table 5 relates to the solubility at room temperature before heating to 80° C. The second column relates to the solubility at 80° C. as observed visually. The third column relates to the solubility after the mixture has been heated to 80° C. and cooled down to room temperature.

[2] = after 3m and after 6m at 25° C., 30° C. and 40° C.; stated below Table 6B (Formulation D)
Experimental: The amount of active agent present is analyzed in foam expelled from various pressurized canisters containing foam formulations using HPLC. Analysis is carried out at zero time and at appropriate time intervals thereafter. The canisters are stored in controlled temperature incubators at one or more of 5° C., at 25° C., at, 40° C. and at 50° C. At appropriate time intervals canisters are removed and the amount of active agent in the foam sample is measured.

[3] = in Capric caprylic triglycerides

Compound: CN(C/C=C/c1ccccc1)Cc1cccc2ccccc12 [naftifine hydrochloride, (E)-N-methyl-N-(1-naphthyl-methyl)-3-phenyl-2-propen-l-amine hydrochloride]
- Dissolution in hydrophobic solvents ([1]; hydrophobic solvents, even under heating): did not dissolve
- Max. Solubility at RT after heating at 80° C. [1, 3]: <1%
- Maximum Solubility at 80° C. [1, 3]: <1%
- Maximum Solubility at RT [1, 3]: <1%
- Max. Solubility at RT after heating at 80° C. ([1]; in Castor oil): <1%
- Maximum Solubility at 80° C. ([1]; in Castor oil): <1%
- Maximum Solubility at RT ([1]; in Castor oil): <1%
- Max. Solubility at RT after heating at 80° C. ([1]; in Cyclomethicone): <1%
- Maximum Solubility at 80° C. ([1]; in Cyclomethicone): <1%
- Maximum Solubility at RT ([1]; in Cyclomethicone): <1%
- Max. Solubility at RT after heating at 80° C. ([1]; in Diethyl sebacate): <1%
- Maximum Solubility at 80° C. ([1]; in Diethyl sebacate): <1%
- Maximum Solubility at RT ([1]; in Diethyl sebacate): <1%
- Max. Solubility at RT after heating at 80° C. ([1]; in Diisopropyl adipate): <1%
- Maximum Solubility at 80° C. ([1]; in Diisopropyl adipate): <1%
- Maximum Solubility at RT ([1]; in Diisopropyl adipate): <1%
- Max. Solubility at RT after heating at 80° C. ([1]; in Dimethyl isosorbide): <1%
- Maximum Solubility at 80° C. ([1]; in Dimethyl isosorbide): <1%
- Maximum Solubility at RT ([1]; in Dimethyl isosorbide): <1%
- Max. Solubility at RT after heating at 80° C. ([1]; in Dimethyl sulfoxide): >8%
- Maximum Solubility at 80° C. ([1]; in Dimethyl sulfoxide): >8%
- Maximum Solubility at RT ([1]; in Dimethyl sulfoxide): ~2%
- Maximum Solubility at 80° C. ([1]; in Ethanol 95%): >8%
- Maximum Solubility at RT ([1]; in Ethanol 95%): ~4%
- Max. Solubility at RT after heating at 80° C. ([1]; in Ethanol 95%, hydrochloride): >8%
- Max. Solubility at RT after heating at 80° C. ([1]; in Ethanol 95%, listed as naftifine HCl, hydrochloride): higher than 8%
- Max. Solubility at RT after heating at 80° C. ([1]; in Glycerin): ~1%
- Maximum Solubility at 80° C. ([1]; in Glycerin): ~1%
- Maximum Solubility at RT ([1]; in Glycerin): <1%
- Max. Solubility at RT after heating at 80° C. ([1]; in Glycofurol): ~1%
- Maximum Solubility at 80° C. ([1]; in Glycofurol): ~1%
- Maximum Solubility at RT ([1]; in Glycofurol): <1%
- Max. Solubility at RT after heating at 80° C. ([1]; in Hexylene glycol): ~1%
- Maximum Solubility at 80° C. ([1]; in Hexylene glycol): ~1%
- Maximum Solubility at RT ([1]; in Hexylene glycol): <1%
- Max. Solubility at RT after heating at 80° C. ([1]; in Isopropyl alcohol): ~2%
- Maximum Solubility at 80° C. ([1]; in Isopropyl alcohol): ~2%
- Maximum Solubility at RT ([1]; in Isopropyl alcohol): <1%
- Max. Solubility at RT after heating at 80° C. ([1]; in Isopropyl myristate): <1%
- Maximum Solubility at 80° C. ([1]; in Isopropyl myristate): <1%
- Maximum Solubility at RT ([1]; in Isopropyl myristate): <1%
- Max. Solubility at RT after heating at 80° C. ([1]; in Isostearic acid): <1%
- Maximum Solubility at 80° C. ([1]; in Isostearic acid): <1%
- Maximum Solubility at RT ([1]; in Isostearic acid): <1%
- Max. Solubility at RT after heating at 80° C. ([1]; in Mineral oil light): <1%
- Maximum Solubility at 80° C. ([1]; in Mineral oil light): <1%
- Maximum Solubility at RT ([1]; in Mineral oil light): <1%
- Max. Solubility at RT after heating at 80° C. ([1]; in Octyldodecanol): <1%
- Maximum Solubility at 80° C. ([1]; in Octyldodecanol): <1%
- Maximum Solubility at RT ([1]; in Octyldodecanol): <1%
- Max. Solubility at RT after heating at 80° C. ([1]; in Oleic acid): <1%
- Maximum Solubility at 80° C. ([1]; in Oleic acid): <1%
- Maximum Solubility at RT ([1]; in Oleic acid): <1%
- Max. Solubility at RT after heating at 80° C. ([1]; in Oleyl alcohol): <1%
- Maximum Solubility at 80° C. ([1]; in Oleyl alcohol): <1%
- Maximum Solubility at RT ([1]; in Oleyl alcohol): <1%
- Max. Solubility at RT after heating at 80° C. ([1]; in Olive oil): <1%
- Maximum Solubility at 80° C. ([1]; in Olive oil): <1%
- Maximum Solubility at RT ([1]; in Olive oil): <1%
- Max. Solubility at RT after heating at 80° C. ([1]; in PPG-15 stearyl ether): <1%
- Maximum Solubility at 80° C. ([1]; in PPG-15 stearyl ether): <1%
- Maximum Solubility at RT ([1]; in PPG-15 stearyl ether): <1%
- Max. Solubility at RT after heating at 80° C. ([1]; in Polyethylene glycol 200): ~3%
- Maximum Solubility at 80° C. ([1]; in Polyethylene glycol 200): ~6%
- Maximum Solubility at RT ([1]; in Polyethylene glycol 200): <1%
- Max. Solubility at RT after heating at 80° C. ([1]; in Polyethylene glycol 400): <1%
- Maximum Solubility at 80° C. ([1]; in Polyethylene glycol 400): <1%
- Maximum Solubility at RT ([1]; in Polyethylene glycol 400): <1%
- Max. Solubility at RT after heating at 80° C. ([1]; in Propylene glycol): >8%
- Maximum Solubility at 80° C. ([1]; in Propylene glycol): >8%
- Maximum Solubility at RT ([1]; in Propylene glycol): <1%
- Max. Solubility at RT after heating at 80° C. ([1]; in Sodium pyroglutamic acid): <1%
- Maximum Solubility at 80° C. ([1]; in Sodium pyroglutamic acid): <1%
- Maximum Solubility at RT ([1]; in Sodium pyroglutamic acid): <1%
- Max. Solubility at RT after heating at 80° C. ([1]; in Soybean oil): <1%
- Maximum Solubility at 80° C. ([1]; in Soybean oil): <1%
- Maximum Solubility at RT ([1]; in Soybean oil): <1%
- Max. Solubility at RT after heating at 80° C. ([1]; in Transcutol): ~2%
- Maximum Solubility at 80° C. ([1]; in Transcutol): ~2%
- Maximum Solubility at RT ([1]; in Transcutol): <1%
- Max. Solubility at RT after heating at 80° C. ([1]; in Water): ~1%
- Maximum Solubility at 80° C. ([1]; in Water): ~1%
- Maximum Solubility at RT ([1]; in Water): <1%
- Dissolution in hydrophilic solvents ([1]; propylene glycol (after heating), ethanol, dimethyl sulfoxide and polyethylene glycol 200 (after heating)): dissolved well
- Stability of naftifine [2]: stable

— patent publication US20190282501A1, “HYDROALCOHOLIC FOAM FORMULATIONS OF NAFTIFINE” (priority 2016, published 2019)
